Assay results published in patent US9522908B2, “Ezrin inhibitors and methods of making and using” (Georgetown University, priority 2010, dated 2016).

Columns and labels:
zebrafish embryos = assay: Zebrafish embryo development assay; assay type: in vivo, Zebrafish (Danio rerio)
Method: Animals. Zebrafish (Danio rerio) were raised, maintained and crossed as described before (Westerfield, M. University of Oregon Press, Eugene. Or., 1993). Development of embryos was studied at 28° C. and staging was determined by morphological characteristics (Kimmel, C. B., et al., Dev. Dyn. 203, 253-310 (1995)).
A translation blocking anti-ezrin morpholino oligonucleotide (MO), described and validated by Link et al. (Link, V., et al., J. Cell Sci., 119, 2073-2083 (2006)), MO1, 5′-[…] (SEQ ID NO:1), was synthesized by Gene-Tools, LCC (Philomath, Oreg.). MOs were microinjected into one to four cell stage embryos.
Zebrafish embryos were arrayed, three per well, in 96-well plates. Compounds were added at 1-33 μM concentrations. Embryos were observed, and photographed, at 70% epiboly, 24-28 hours post fertilization (hpf) and 48 hpf.

[1] = system: high ezrin expressed K7M2 cells; assay: Electric cell migration system, K7M2 cells; assay type: cell-based; conditions: non-toxic concentration; compared to NSC 668394
Method: (§1) Anti-migration potential of the embodied compounds were validated using an electric cell migration system. High ezrin expressed K7M2 cells and low ezrin expressed K12 cells were treated with non-toxic concentrations of a compound and their corresponding anti-migration activity was measured. Data is represented as the ratio of compound K7M2 anti-migration activity divided by the K12 anti-migration activity. The X-axis details the non-toxic concentration of the compound used in the study.

[2] = system: low ezrin expressed K12 cells; assay: Electric cell migration system, K12 cells; assay type: cell-based; conditions: non-toxic concentration
Method: as §1

| Compound | embryos with epiboly defects at 90% epiboly stage (zebrafish embryos; 3 ng injected) | embryos with epiboly defects at 90% epiboly stage (zebrafish embryos; 6 ng injected) | embryos with epiboly defects at 90% epiboly stage (zebrafish embryos; 12 ng injected) | anti-migratory activity on K7M2 cells [1] | effect on K12 cell line migration [2] |
| --- | --- | --- | --- | --- | --- |
| 5′-CGCGAACATTTACTGGTTTAGG (SEQ ID NO:1) (all phosphorodiamidate morpholino (PMO)) [MO1] | 42% | 69% | 69% |  |  |
| COc1ccc(CCNC2=CC(=O)c3cccnc3C2=O)cc1Cl [GK2-057] |  |  |  | greater anti-migratory activity | benign |
